{"source": "ChEMBL document CHEMBL6071152", "about": "“Design, synthesis, and biological evaluation of oridonin derivatives as novel NLRP3 inflammasome inhibitors for the treatment of acute lung injury” (Eur J Med Chem, 2024)", "key": {"[1]": {"biological_target": "NACHT, LRR and PYD domains-containing protein 3 (Mus musculus) (UniProt Q8R4B8)", "sequence (Q8R4B8 whole entry, the tested form may be a part)": "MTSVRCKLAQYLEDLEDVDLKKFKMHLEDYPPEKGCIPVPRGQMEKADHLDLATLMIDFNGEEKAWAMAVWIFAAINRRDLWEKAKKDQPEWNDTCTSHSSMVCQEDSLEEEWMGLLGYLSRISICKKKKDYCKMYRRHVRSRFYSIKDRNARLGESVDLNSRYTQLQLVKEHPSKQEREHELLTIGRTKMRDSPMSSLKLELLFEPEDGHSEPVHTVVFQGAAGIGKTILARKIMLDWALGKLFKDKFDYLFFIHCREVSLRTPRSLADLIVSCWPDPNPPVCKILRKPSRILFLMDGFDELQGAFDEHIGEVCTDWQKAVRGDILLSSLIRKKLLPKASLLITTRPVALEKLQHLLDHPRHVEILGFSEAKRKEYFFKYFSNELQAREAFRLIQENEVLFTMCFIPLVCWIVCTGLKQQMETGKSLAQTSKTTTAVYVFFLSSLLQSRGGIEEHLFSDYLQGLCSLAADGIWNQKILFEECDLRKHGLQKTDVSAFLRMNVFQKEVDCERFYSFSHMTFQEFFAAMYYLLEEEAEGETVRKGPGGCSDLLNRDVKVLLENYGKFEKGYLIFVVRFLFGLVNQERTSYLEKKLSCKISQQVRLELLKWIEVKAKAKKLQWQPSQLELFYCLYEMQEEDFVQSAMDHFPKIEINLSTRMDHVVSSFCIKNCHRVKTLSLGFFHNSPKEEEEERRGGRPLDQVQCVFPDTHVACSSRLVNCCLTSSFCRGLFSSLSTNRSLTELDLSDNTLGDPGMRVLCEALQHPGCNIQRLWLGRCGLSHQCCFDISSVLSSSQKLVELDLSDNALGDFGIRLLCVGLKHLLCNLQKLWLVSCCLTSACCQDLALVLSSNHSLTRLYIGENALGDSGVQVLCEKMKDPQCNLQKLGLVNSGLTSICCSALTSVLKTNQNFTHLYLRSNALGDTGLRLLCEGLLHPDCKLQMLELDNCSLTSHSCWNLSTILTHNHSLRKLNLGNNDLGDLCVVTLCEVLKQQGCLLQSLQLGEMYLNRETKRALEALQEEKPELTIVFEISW", "test": "Inhibition of NLRP3 inflammasome priming in ICR mouse BMDM assessed as inhibition of pro-IL-1 beta expression in cell lysate at 1 uM treated for 3 hrs with LPS followed by incubation with compound for 1 hr and later stimulated with nigericin for 0.5 hrs by western blot analysis", "type": "subcellular", "settings": "time 1.5 hrs"}, "[2]": {"test": "Cytotoxicity against ICR mouse BMDM assessed as reduction in cell viability incubated for 24 hrs by CCK8 assay", "type": "toxicity, cell-based", "settings": "BMDM (bone marrow-derived macrophages)"}, "Mus musculus [3]": {"test_system": "Mus musculus", "test": "Anti-inflammatory activity against LPS-stimulated acute lung injury C57BL/6 mouse model assessed as decrease in IL-1 beta level in serum at 0.1 to 1 mg/kg, ip treated for 3 days and on third day administered with LPS at 30 mins post-compound challenge and measured after 12 hrs by ELISA", "type": "functional, organism-based", "settings": "dose 0.1-1 mg/kg, time 3.5 day"}, "[4]": {"biological_target": "NACHT, LRR and PYD domains-containing protein 3 (Mus musculus) (UniProt Q8R4B8)", "test": "Inhibition of NLRP3 inflammasome activation in ICR mouse BMDM assessed as inhibition of LPS/MSU-stimulated caspase-1 expression in cell supernatant at 1 uM treated for 3 hrs with LPS followed by incubation with compound for 1 hr and later stimulated with MSU for 4 hrs by western blot analysis", "type": "cell-based", "settings": "time 5.0 hrs"}, "[5]": {"biological_target": "NACHT, LRR and PYD domains-containing protein 3 (Mus musculus) (UniProt Q8R4B8)", "test": "Inhibition of NLRP3 inflammasome activation in ICR mouse BMDM assessed as inhibition of LPS/MSU-stimulated IL-1 beta secretion in cell supernatant at 1 uM treated for 3 hrs with LPS followed by incubation with compound for 1 hr and later stimulated with MSU for 4 hrs by ELISA", "type": "cell-based", "settings": "time 5.0 hrs"}, "Mus musculus [6]": {"test_system": "Mus musculus", "test": "Anti-inflammatory activity against LPS-stimulated acute lung injury C57BL/6 mouse model assessed as active animal at 10 mg/kg, ip treated for 3 days and on third day administered with LPS at 30 mins post-compound challenge", "type": "functional, organism-based", "settings": "time 3.0 day"}, "[7]": {"biological_target": "T1, Interferon-inducible protein AIM2 (Mus musculus) (UniProt Q91VJ1)", "T1 sequence (whole entry)": "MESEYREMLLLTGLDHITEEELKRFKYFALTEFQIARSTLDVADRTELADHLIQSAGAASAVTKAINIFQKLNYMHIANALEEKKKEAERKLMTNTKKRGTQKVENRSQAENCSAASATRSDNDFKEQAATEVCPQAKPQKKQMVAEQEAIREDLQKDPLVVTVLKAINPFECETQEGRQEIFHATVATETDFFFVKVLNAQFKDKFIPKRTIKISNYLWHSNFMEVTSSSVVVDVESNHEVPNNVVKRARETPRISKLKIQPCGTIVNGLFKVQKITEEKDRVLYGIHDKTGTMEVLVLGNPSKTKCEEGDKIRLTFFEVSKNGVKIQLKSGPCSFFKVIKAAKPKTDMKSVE", "test": "Inhibition of AIM2 inflammasome activation in ICR mouse BMDM assessed as inhibition of poly(dA:dT)-stimulated IL-1 beta secretion in cell supernatant at 1 uM treated for 3 hrs with LPS followed by incubation with compound for 1 hr and later cells transfected with poly(dA:dT) for 4 hrs by ELISA", "type": "cell-based", "settings": "time 5.0 hrs"}, "[8]": {"biological_target": "NACHT, LRR and PYD domains-containing protein 3 (Mus musculus) (UniProt Q8R4B8)", "test": "Inhibition of NLRP3 inflammasome priming in ICR mouse BMDM assessed as inhibition of pro-caspase-1 expression in cell supernatant at 0.2 to 5 uM pretreated with compound for 1 hr followed by stimulation with LPS for 3 hrs and later incubated with ATP for 30 mins by western blot analysis", "type": "cell-based", "settings": "dose 0.2-5 µM, time 4.5 hrs"}, "[9]": {"biological_target": "NACHT, LRR and PYD domains-containing protein 3 (Mus musculus) (UniProt Q8R4B8)", "test": "Inhibition of NLRP3 inflammasome activation in ICR mouse BMDM assessed as inhibition of LPS/ATP-stimulated caspase-1 expression in cell supernatant at 1 uM treated for 3 hrs with LPS followed by incubation with compound for 1 hr and later stimulated with ATP for 0.5 hrs by western blot analysis", "type": "cell-based", "settings": "time 1.5 hrs"}, "[10]": {"biological_target": "NACHT, LRR and PYD domains-containing protein 3 (Mus musculus) (UniProt Q8R4B8)", "test": "Inhibition of NLRP3 inflammasome priming in ICR mouse BMDM assessed as inhibition of NLRP3 expression in cell supernatant at 0.2 to 5 uM pretreated with compound for 1 hr followed by stimulation with LPS for 3 hrs and later incubated with ATP for 30 mins by western blot analysis", "type": "cell-based", "settings": "dose 0.2-5 µM, time 4.5 hrs"}, "[11]": {"biological_target": "NACHT, LRR and PYD domains-containing protein 3 (Mus musculus) (UniProt Q8R4B8)", "test": "(§1) Inhibition of NLRP3 inflammasome activation in ICR mouse BMDM assessed as inhibition of LPS/nigericin-stimulated IL-1 beta secretion in cell supernatant at 1 uM treated for 3 hrs with LPS followed by incubation with compound for 1 hr and later stimulated with nigericin for 0.5 hrs by ELISA", "type": "cell-based", "settings": "time 1.5 hrs"}, "[12]": {"biological_target": "NACHT, LRR and PYD domains-containing protein 3 (Mus musculus) (UniProt Q8R4B8)", "test": "Inhibition of NLRP3 inflammasome priming in ICR mouse BMDM assessed as inhibition of ASC protein expression in cell lysate at 0.2 to 5 uM treated for 3 hrs with LPS followed by incubation with compound for 1 hr and later stimulated with ATP for 0.5 hrs by western blot analysis", "type": "subcellular", "settings": "dose 0.2-5 µM, time 1.5 hrs"}, "Mus musculus [13]": {"test_system": "Mus musculus", "test": "(§2) Anti-inflammatory activity against LPS-stimulated acute lung injury C57BL/6 mouse model assessed as decrease in IL-6 level in BALF at 0.1 to 1 mg/kg, ip treated for 3 days and on third day administered with LPS at 30 mins post-compound challenge and measured after 12 hrs by ELISA", "type": "functional, organism-based", "settings": "dose 0.1-1 mg/kg, time 3.5 day"}, "Mus musculus [14]": {"test_system": "Mus musculus", "test": "as §2, with “TNF-alpha mRNA expression” for “IL-6 level”, “right lung” for “BALF”, “RT-qPCR analysis” for “ELISA”", "type": "functional, organism-based", "settings": "dose 0.1-1 mg/kg, time 3.5 day"}, "[15]": {"biological_target": "NACHT, LRR and PYD domains-containing protein 3 (Mus musculus) (UniProt Q8R4B8)", "test": "Inhibition of NLRP3 inflammasome priming in ICR mouse BMDM assessed as inhibition of LPS/ATP-stimulated TNF-alpha secretion in cell supernatant at 0.2 to 5 uM treated for 3 hrs with LPS followed by incubation with compound for 1 hr and later stimulated with ATP for 0.5 hrs by ELISA", "type": "cell-based", "settings": "dose 0.2-5 µM, time 1.5 hrs"}, "[16]": {"biological_target": "NACHT, LRR and PYD domains-containing protein 3 (Mus musculus) (UniProt Q8R4B8)", "test": "as §1, with “expression” for “secretion”, “western blot analysis” for “ELISA”", "type": "cell-based", "settings": "time 1.5 hrs"}, "[17]": {"biological_target": "NACHT, LRR and PYD domains-containing protein 3 (Mus musculus) (UniProt Q8R4B8)", "test": "Inhibition of NLRP3 inflammasome priming in ICR mouse BMDM assessed as inhibition of pro-IL1 beta protein expression in cell lysate at 1 uM treated for 3 hrs with LPS followed by incubation with compound for 1 hr and later stimulated with MSU for 4 hrs by western blot analysis", "type": "subcellular", "settings": "time 5.0 hrs"}, "Mus musculus [18]": {"test_system": "Mus musculus", "test": "as §2, with “in alveolar dilation” for “in IL-6 level”, “in right lung” for “in BALF”, “at 1” for “at 0.1”, “to 10” for “to 1”, “by Hematoxylin-Eosin staining analysis” for “by ELISA”", "type": "functional, organism-based", "settings": "dose 1-10 mg/kg, time 3.5 day"}, "Mus musculus [19]": {"test_system": "Mus musculus", "test": "Anti-inflammatory activity against LPS-stimulated acute lung injury C57BL/6 mouse model assessed as decrease in IL-1 beta level in BALF at 0.1 to 1 mg/kg, ip treated for 3 days and on third day administered with LPS at 30 mins post-compound challenge and measured after 12 hrs by ELISA", "type": "functional, organism-based", "settings": "dose 0.1-1 mg/kg, time 3.5 day"}, "[20]": {"biological_target": "NACHT, LRR and PYD domains-containing protein 3 (Mus musculus) (UniProt Q8R4B8)", "test": "Inhibition of NLRP3 inflammasome priming in ICR mouse BMDM assessed as inhibition of pro-caspase-1 expression in cell lysate at 1 uM treated for 3 hrs with LPS followed by incubation with compound for 1 hr and later stimulated with nigericin for 0.5 hrs by western blot analysis", "type": "subcellular", "settings": "time 1.5 hrs"}, "[21]": {"biological_target": "NACHT, LRR and PYD domains-containing protein 3 (Mus musculus) (UniProt Q8R4B8)", "test": "Inhibition of NLRP3 inflammasome priming in ICR mouse BMDM assessed as inhibition of pro-caspase-1 protein expression in cell lysate at 1 uM treated for 3 hrs with LPS followed by incubation with compound for 1 hr and later stimulated with MSU for 4 hrs by western blot analysis", "type": "subcellular", "settings": "time 5.0 hrs"}}, "note": "Active and inactive are the calls of the source. The rule behind the calls is not given here.", "data": [{"compound": "C=C1C(=O)[C@]23[C@H](OC(=O)Nc4ccc(F)cc4)[C@H]1CC[C@H]2[C@]12C=CCC(C)(C)[C@H]1[C@H](O)[C@@]3(O)OC2", "values": [{"measurement": "inhibition", "setting": "[1]", "result": "inactive"}, {"measurement": "IC50 at 24 h", "setting": "[2]", "result": "> 10", "unit": "µM"}, {"measurement": "Activity", "setting": "Mus musculus [3]", "result": "Dose-Dependent Effect"}, {"measurement": "inhibition", "setting": "[4]", "result": "Active"}, {"measurement": "inhibition", "setting": "[5]", "result": "Active"}, {"measurement": "Activity", "setting": "Mus musculus [6]", "result": "Active"}, {"measurement": "inhibition", "setting": "[7]", "result": "inactive"}, {"measurement": "inhibition", "setting": "[8]", "result": "inactive"}, {"measurement": "inhibition", "setting": "[9]", "result": "Active"}, {"measurement": "inhibition", "setting": "[10]", "result": "inactive"}, {"measurement": "inhibition", "setting": "[11]", "result": "Active"}, {"measurement": "inhibition", "setting": "[12]", "result": "inactive"}, {"measurement": "Activity", "setting": "Mus musculus [13]", "result": "Dose-Dependent Effect"}, {"measurement": "Activity", "setting": "Mus musculus [14]", "result": "Dose-Dependent Effect"}, {"measurement": "inhibition", "setting": "[15]", "result": "inactive"}, {"measurement": "inhibition", "setting": "[16]", "result": "Active"}, {"measurement": "inhibition", "setting": "[17]", "result": "inactive"}, {"measurement": "Activity", "setting": "Mus musculus [18]", "result": "Active"}, {"measurement": "Activity", "setting": "Mus musculus [19]", "result": "Dose-Dependent Effect"}, {"measurement": "inhibition", "setting": "[20]", "result": "inactive"}, {"measurement": "inhibition", "setting": "[21]", "result": "inactive"}]}]}
